In patent publication US20120083522A1, “MODULATION OF INFLAMMATORY RESPONSES BY FACTOR XI” (Isis Pharmaceuitcals, inc., priority 2009, published 2012):

Tests used:
Format in all cases: cell-based
[1] = test system: human Factor XI mRNA; experiment: Dose-dependent inhibition in HepG2 cells, lipofectin (Example 5); settings: 16 hours
Procedure, shortened: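 HepG2 cells (10,000/well) were lipofectin-transfected with antisense oligonucleotide at 2.34–75 nM for about 16 h. Factor XI mRNA was measured by qRT-PCR (primer-probe RTS 2966), normalised to RIBOGREEN total RNA, and expressed as percent inhibition versus untreated cells.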

[2] = test system: human Factor XI mRNA; experiment: Dose-dependent inhibition in HepG2 cells, electroporation (Example 4); settings: 16 hours
Procedure, shortened: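 HepG2 cells electroporated with 0.7, 2.2, 6.7 or 20 μM antisense gapmer and harvested after ~16 h. Factor XI mRNA quantified by qRT-PCR (primer probe set RTS 2966), normalised to total RNA (RIBOGREEN). Reported as percent inhibition versus untreated control cells.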

[3] = test system: human Factor XI mRNA; experiment: Dose-dependent inhibition in HepB3 cells, lipofectin (Example 7); settings: approx. 16 h
Procedure, shortened: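 Antisense oligonucleotides at 2.3–75 nM were delivered by lipofectin into cells seeded at 4,000/well and left for ~16 h. Factor XI mRNA was quantified by qRT-PCR with primer probe set RTS 2966 and normalised to RIBOGREEN total RNA. Values are percent inhibition versus untreated cells.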

[4] = test system: human Factor XI mRNA; experiment: Dose-dependent inhibition in HepG2 cells, electroporation (Example 5); settings: approx. 16 h, relative to untreated control cells
Procedure, shortened: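 20,000 cells per well electroporated with 625–20,000 nM antisense oligonucleotide; RNA isolated after ~16 h. Factor XI mRNA by quantitative real-time PCR (primer probe set RTS 2966), normalised to RIBOGREEN total RNA; percent inhibition relative to untreated control cells.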

[5] = test system: human Factor XI mRNA; experiment: Antisense inhibition in HepG2 cells by microwalk gapmers, 75 nM, lipofectin (Example 3); settings: HepG2 cells, 75 nM, oligonucleotides targeted to nucleobases 1275 to 1318 of SEQ ID NO: 1
Procedure, shortened: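 HepG2 cells (10,000 per well) were transfected with 75 nM gapmer using lipofectin and treated for about 24 h. Factor XI mRNA was quantified by real-time PCR, normalized to RiboGreen total RNA and expressed as percent inhibition versus untreated controls.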

417003 (antisense TGGTGCACAGTTTCTGGCAG; 2-13-5 gapmer, wing sugar chemistry not given here, further chemistry not given here) [compound 417003]
percent inhibition of human Factor XI mRNA, relative to untreated control cells ([1]; 2.34 nM): 6% | percent inhibition of human Factor XI mRNA, relative to untreated control cells ([1]; 4.69 nM): 29% | percent inhibition of human Factor XI mRNA, relative to untreated control cells ([1]; 9.375 nM): 48% | percent inhibition of human Factor XI mRNA, relative to untreated control cells ([1]; 18.75 nM): 64% | percent inhibition of human Factor XI mRNA, relative to untreated control cells ([1]; 37.5 nM): 73% | percent inhibition of human Factor XI mRNA, relative to untreated control cells ([1]; 75 nM): 82% | percent inhibition of Factor XI mRNA, relative to untreated control cells ([2]; 0.7 μM): 0% | percent inhibition of Factor XI mRNA, relative to untreated control cells ([2]; 2.2 μM): 34% | percent inhibition of Factor XI mRNA, relative to untreated control cells ([2]; 6.7 μM): 75% | percent inhibition of Factor XI mRNA, relative to untreated control cells ([2]; 20 μM): 89% | percent inhibition of human Factor XI mRNA ([3]; 2.3 nM): 11% | percent inhibition of human Factor XI mRNA ([3]; 4.7 nM): 28% | percent inhibition of human Factor XI mRNA ([3]; 9.4 nM): 40% | percent inhibition of human Factor XI mRNA ([3]; 18.75 nM): 40% | percent inhibition of human Factor XI mRNA ([3]; 37.5 nM): 63% | percent inhibition of human Factor XI mRNA ([3]; 75 nM): 58% | percent inhibition of human Factor XI mRNA ([4]; 625 nM): 60% | percent inhibition of human Factor XI mRNA ([4]; 1250 nM): 74% | percent inhibition of human Factor XI mRNA ([4]; 2500 nM): 86% | percent inhibition of human Factor XI mRNA ([4]; 5000 nM): 90% | percent inhibition of human Factor XI mRNA ([4]; 10000 nM): 95% | percent inhibition of human Factor XI mRNA ([4]; 20000 nM): 95% | % inhibition of human Factor XI mRNA levels [5]: 89%
